Test results as given in article PMC7815092, “The role of posttranslational modifications in generating neo-epitopes that bind to rheumatoid arthritis-associated HLA-DR alleles and promote autoimmune T cell responses” (PLoS ONE, 2021).
Blank lines part the entries; values can stand above or below the compound they belong to. Where a SMILES comes first, the peptide text is derived from it. Where no end group is shown, it is not given here. [ ]: non-standard residue; d: D form. Cit = NC(=O)NCCC[C@H](N)C(=O)O

Columns and labels:
HLA-DR1 (DRB1*01:01) = molecular target: T1, HLA-DR1 (DRB1*01:01) (Homo sapiens, UniProt P01903+P01911, A100R/D57E/F55L/F60I/F76Y/I96L/L162R/M171V/P40L/Q125E/R42F/V115G/Y59C); test: Competitive peptide binding assay to soluble HLA-DR1; settings: competition with 0.5 nM biotinylated CII(257–274), 10 nM soluble DR1, 18 h at 37° C, time resolved fluorescence; duplicate, representative of 3 experiments
T1 construct: a new stop codon was inserted immediately prior to the transmembrane domain; made in house; host or cells: Drosophila S2 cells, vector pRmHA-3, secreted, purified on an L227 antibody column
Source text: (§1) Soluble DR1 and DR4 were purified from culture supernatants of S2 drosophila cells transfected with DRB1*0101 or DRB1*0401 and DRA1*0101 as described previously. The cytoplasmic and transmembrane portions of these molecules were deleted from the cDNA using PCR, a new stop codon was inserted immediately prior to the transmembrane domain, and the resulting cDNA was cloned into the drosophila expression vector pRmHA-3. S2 cells were transfected with a 10:10:1 ratio of DRB1:DRA1:pUChsNeo using calcium phosphate precipitation. Soluble DR production was induced by 1 mM CuSO4, and 5 days later the culture supernatant was collected and adjusted to 0.05% octyl glucoside (OcG). Soluble DR was purified by passage of the supernatant over an affinity column coupled with the anti-DR antibody L227. The column was washed with 0.05% OcG and 0.15 M NaCl in phosphate buffer (PB), pH 7.5, followed by 0.05% OcG and 0.5M NaCl in PB, pH 7.5. DR was eluted with 100 mM Tris, 0.5M NaCl, pH 11.2, and the fractions were immediately neutralized with acetic acid. Recovered DR protein was concentrated using an EMD Millipore stirred cell with a YM30 disc membrane (Beverly, MA) and quantitated by OD 280 nm absorption and SDS-PAGE prior to use.
(§2) For binding assays, a 10 nM solution of purified DR1 or DR4 was incubated for 18 h at 37° C with CII(257–274) peptide (0.5 nM) that had been labeled at the NH2 terminus with biotin as previously described. Various concentrations of peptides were added as competitors to the CII peptide binding. Bound peptides were separated from free peptides by immobilizing the DR molecules on microtiter plates coated with the monoclonal antibody L227 and subsequent washing. The antibody was adhered to the plate by an overnight incubation of a 10 μg/ml solution at 4° C. Bound biotinylated peptides were detected by incubation with streptavidin-europium followed by a chelating enhancement solution. Time resolved fluorescence was quantitated using a microplate fluorometer (FluoroMark, Bio-Rad, Hercules, CA), and data are expressed as relative fluorescence units measured. The 50% inhibitory concentration values (IC50) values were calculated from the binding curves and graphed as 1/IC50 to indicate affinity relative to the control peptide. Each binding assay was performed in duplicate, and data are representative of 3 experiments.
(§3) Fig 1 Measurement of peptide binding to DRB1*01:01. 10 nM of soluble DR1 was incubated for 18 h at 37° C with 0.5 nM of biotinylated CII(257–274) peptide and various concentrations of WT and Cit-peptides as competitors. Bound peptides were separated from free peptides by immobilizing the DR molecules with an antibody on microtiter plates. Bound biotinylated peptide was detected by incubation with streptavidin-europium. Time resolved fluorescence was quantitated and data are expressed as relative fluorescence units measured. Each binding assay was performed in duplicate, and data are representative of 3 experiments.

HLA-DR4 (DRB1*04:01) = molecular target: T2, HLA-DR4 (DRB1*04:01) (Homo sapiens, UniProt P01903+P01911, A100K/A169T/F76Y/I96L/K127E/L162R/M171V/N62H/P40V/Q125Y/R42H/S133A/S149N/S66Y/V115G/V209L/W38E); test: Competitive peptide binding assay to soluble HLA-DR4; settings: for IC50: competition with 0.5 nM biotinylated CII(257–274), 10 nM soluble DR4, 18 h at 37° C
T2 construct: a new stop codon was inserted immediately prior to the transmembrane domain; made in house; host or cells: Drosophila S2 cells, vector pRmHA-3, secreted, purified on an L227 antibody column
Source text: as §1, §2
as §3, with “Fig 2” for “Fig 1”, “to DRB1*04:01.” for “to DRB1*01:01.”, “soluble DR4” for “soluble DR1”

[1] = test system: lymph node T cells from B6.DR1 mice; test: Cytokine production by WT or Cit-peptide stimulated T cells (multiplexed bead assay); assay type: cell-based, mouse; set-up: key to Cytokine WT/Cit Ratio, TNFα: “–” values the result of no cytokine detected from the Cit-Ag or both antigens; settings: T cells of mice immunized with the immunogen, calculated from Fig 5; for Cytokine WT/Cit Ratio, TNFα: WT over Cit stimulation, “>” = no TNFα produced by Cit-Ag stimulation; for Cytokine WT/Cit Ratio, IFNγ / Cytokine WT/Cit Ratio, IL-6 / Cytokine WT/Cit Ratio, IL-10 / Cytokine WT/Cit Ratio, IL-17A: WT-stimulated over Cit-stimulated, supernatant 3 days
Description: Cytokines produced by WT and Cit-peptide stimulated T cells were measured using a multiplexed bead assay (BioRad) and analyzed using a BioRad MagPix. B6.DR1 mice were immunized with WT or Cit-peptide, and 10 days later LN cells were recovered and re-stimulated with the corresponding WT peptide or Cit-peptide. Supernatants were collected 3 days after stimulation and assayed for expression of IFNγ, TNFα, IL-10, IL-17A, and IL-6. Standard curves were used to calculate cytokine concentration. Data are representative of two independent experiments and based on duplicate samples.
Fig 5 Cytokine production by T cells stimulated with WT or Cit-peptides. Supernatants from T cell proliferation assays in Fig 4 were collected 3 days after antigen stimulation and analyzed for the expression of proinflammatory cytokines. Cytokines produced were measured using a multiplexed bead assay and analyzed using a BioRad MagPix. Standard curves were used to calculate cytokine concentration. The cytokines produced by CII immunized T cells stimulated with the immunodominant epitope, CII(257–274), that drives autoimmune arthritis in the B6.DR1 model are shown for comparison (right panels). Data are representative of two independent experiments and based on duplicate samples.

[2] = test system: B6.DR1 (HLA-DRB1*01:01 transgenic) mice; test: Induction of autoimmune arthritis in HLA-DR1 transgenic mice; assay type: in vivo, mouse
Description: Citrullinated CII (Cit-CII) was produced using the method described by Lundberg et al. and Burkhardt et al.. 4 ml of CII at 0.25 mg/ml was dialyzed against citrullination buffer (0.1 M Tris-HCl pH 7.6, 10 mM CaCl2, 5 mM DTT), and 6.7 μl (8.5 μg, 33.4 U) of PAD4 (human recombinant, Cayman Chemical) was used to induce citrullination. Sham Cit-CII was produced using the same procedure without the PAD4 enzyme.
For arthritis induction and T cell proliferation assays, 8 to 10 week old mice were immunized subcutaneously at the base of the tail with 100 μg of peptide or bovine CII emulsified in equal volumes of CFA consisting of 85% heavy paraffin oil (Fisher Scientific), 15% mannide mono-oleate (Sigma), and 4 mg/ml of heat killed mycobacterium (H37Ra, Difco). For arthritis studies, mice were examined 3 times per week starting at day 18 after immunization and the presence of arthritis, number of affected limbs, and the severity were assessed. Severity of disease was evaluated by visual inspection and assigned a score using a scale of 0 to 4 based on the degree of inflammation as described.
Fig 8 Induction of autoimmune arthritis in HLA-DR1 mice with WT CII and Cit-CII. B6.DR1 mice were immunized with native CII or Cit-CII and the incidence (panel A) and severity (panels B, C, and D) of arthritis were monitored. […]

Compound: LQYMRADQAAGGLR [CII]
IC50 (HLA-DR1 (DRB1*01:01)): 82.9 nM
IC50 (HLA-DR4 (DRB1*04:01)): 37.4 nM

Compound: NQDFTNRINKLKNS [Fib]
IC50 (HLA-DR1 (DRB1*01:01)): > 4500 nM
binding to DR4 (in words) (HLA-DR4 (DRB1*04:01); up to 40,000:1 nM ratio of competitor:indicator peptide): essentially undetectable
Cytokine WT/Cit Ratio, TNFα [1]: 1.3
Cytokine WT/Cit Ratio, IFNγ [1]: 2.5
Cytokine WT/Cit Ratio, IL-6 [1]: 1.1
Cytokine WT/Cit Ratio, IL-10 [1]: 1.0
Cytokine WT/Cit Ratio, IL-17A [1]: 1.4

Compound: SAVRLRSSVPGVR [Vim]
IC50 (HLA-DR1 (DRB1*01:01)): 76.1 nM

Compound: VVLLVATEGRVRVNSAYQDK [Agg]
IC50 (HLA-DR1 (DRB1*01:01)): 110 nM
IC50 (HLA-DR4 (DRB1*04:01)): > 5000 nM

Compound: citrullinated CII: native bovine type II collagen protein treated with PAD4 to convert Arg to Cit
induction of autoimmune arthritis ([2]; DR1 Tg mice immunized with 100 μg in CFA): induced autoimmune arthritis
severity of arthritis compared with WT CII ([2]; DR1 Tg mice, incidence, onset and severity score 0 to 4): no evidence that the disease was more severe than immunization with WT CII

Now from value to compound, other results behind:

IC50 (HLA-DR1 (DRB1*01:01)): 82.6 nM
IC50 (HLA-DR4 (DRB1*04:01)): > 5000 nM
Compound: CC(C)C[C@H](NC(=O)[C@H](CC(C)C)NC(=O)[C@@H](NC(=O)[C@@H](N)C(C)C)C(C)C)C(=O)N[C@H](C(=O)N[C@@H](C)C(=O)N[C@H](C(=O)N[C@@H](CCC(=O)O)C(=O)NCC(=O)N[C@@H](CCCNC(N)=O)C(=O)N[C@H](C(=O)N[C@@H](CCCNC(=N)N)C(=O)N[C@H](C(=O)N[C@@H](CC(N)=O)C(=O)N[C@@H](CO)C(=O)N[C@@H](C)C(=O)N[C@@H](Cc1ccc(O)cc1)C(=O)N[C@@H](CCC(N)=O)C(=O)N[C@@H](CC(=O)O)C(=O)N[C@@H](CCCCN)C(=O)O)C(C)C)C(C)C)[C@@H](C)O)C(C)C [cit-Agg] (H-VVLLVATEG[Cit]VRVNSAYQDK-OH)

IC50 (HLA-DR1 (DRB1*01:01)): 121 nM
IC50 (HLA-DR4 (DRB1*04:01)): 170 nM
Compound: CSCC[C@H](NC(=O)[C@H](Cc1ccc(O)cc1)NC(=O)[C@H](CCC(N)=O)NC(=O)[C@@H](N)CC(C)C)C(=O)N[C@@H](CCCNC(N)=O)C(=O)N[C@@H](C)C(=O)N[C@@H](CC(=O)O)C(=O)N[C@@H](CCC(N)=O)C(=O)N[C@@H](C)C(=O)N[C@@H](C)C(=O)NCC(=O)NCC(=O)N[C@@H](CC(C)C)C(=O)N[C@@H](CCCNC(=N)N)C(=O)O [cit-CII] (H-LQYM[Cit]ADQAAGGLR-OH)

IC50 (HLA-DR1 (DRB1*01:01)): > 4500 nM
Compound: CC[C@H](C)[C@H](NC(=O)[C@H](CCCNC(N)=O)NC(=O)[C@H](CC(N)=O)NC(=O)[C@@H](NC(=O)[C@H](Cc1ccccc1)NC(=O)[C@H](CC(=O)O)NC(=O)[C@H](CCC(N)=O)NC(=O)[C@@H](N)CC(N)=O)[C@@H](C)O)C(=O)N[C@@H](CC(N)=O)C(=O)N[C@@H](CCCCN)C(=O)N[C@@H](CC(C)C)C(=O)N[C@@H](CCCCN)C(=O)N[C@@H](CC(N)=O)C(=O)N[C@@H](CO)C(=O)O [cit-Fib] (H-NQDFTN[Cit]INKLKNS-OH; N-terminus and C-terminus assumed)
Cytokine WT/Cit Ratio, TNFα [1]: –
Cytokine WT/Cit Ratio, IFNγ [1]: 0.2
Cytokine WT/Cit Ratio, IL-6 [1]: 0.9
Cytokine WT/Cit Ratio, IL-10 [1]: 0.3
Cytokine WT/Cit Ratio, IL-17A [1]: 1.0

IC50 (HLA-DR1 (DRB1*01:01)): 1.1 nM
Compound: CC(C)C[C@H](NC(=O)[C@H](CCCNC(=N)N)NC(=O)[C@@H](NC(=O)[C@H](C)NC(=O)[C@@H](N)CO)C(C)C)C(=O)N[C@@H](CCCNC(N)=O)C(=O)N[C@@H](CO)C(=O)N[C@@H](CO)C(=O)N[C@H](C(=O)N1CCC[C@H]1C(=O)NCC(=O)N[C@H](C(=O)N[C@@H](CCCNC(=N)N)C(=O)O)C(C)C)C(C)C [cit-Vim] (H-SAVRL[Cit]SSVPGVR-OH)
